The results in this text go back to patent publication US7163696B2, “Pharmaceutical formulations” (Pfizer Inc., priority 2001, dated 2007).

A short description of data set [1]: Measurement of Papp values across Caco-2 cell monolayers (Example 15). It is filed as in vitro ADME. Particulars: human, initial concentration in donor (apical) chamber 25 μM, 37° C. The text has this:
P Artursson and J Karlsson described the use of monolayers of Caco-2 cells to generate apparent permeability coefficients (Papp values) for drug absorption across the intestinal epithelium in ‘Correlation between oral drug absorption in humans and apparent drug permeability coefficients in human intestinal epithelial (Caco-2) cells’, Biochemical and Biophysical Research Communications, Vol 175 (3), pp 880–885, 1991.
Preferably, when measuring the Papp value, the initial concentration of test compound in the donor chamber is at a relevant therapeutic concentration, for example 25 μM.
Caco-2 cells originating from a human colon carcinoma were obtained from the ATCC (HTB-37) and were used between passage number 24–44. Cells were maintained in MEM with Earles salts containing 2 mM L-glutamine, 1 mM sodium pyruvate, 1% (v/v) MEM non-essential amino acids (Gibco) and 20% foetal calf serum (Sigma) at 37° C. in an atmosphere of 5% CO2 and 90% relative humidity. Falcon 24 well filter inserts (Becton Dickinson) were seeded with 4×10^4 cells/well. […]
Transport data across the Caco-2 cell monolayers is expressed as Papp values. Papp values are calculated according to the equation disclosed by Artursson and Karlsson as follows: Papp=(dQ/dt)(1/AC0), wherein dQ/dt is the permeability rate, Co the initial concentration in the donor chamber, and A the surface area of the monolayer.

A short description of data set [2]: Bioavailability testing by the applicants (unpublished). Particulars: in vivo.

By Papp A→B is commonly meant the apparent permeability from the apical to the basolateral side of a cell layer. Regarding `COc1cc2nc(N3CCc4c(cccc4NS(C)(=O)=O)C3)nc(N)c2c(-c2ccccn2)c1OC.CS(=O)(=O)O` [4-amino-6,7-dimethoxy-2-(5-methanesulfonamido-1,2,3,4-tetrahydroisoquinol-2-yl)-5-(2-pyridyl)quinazoline mesylate], the Papp A→B at 2 h, 25 μM in data set [1] was 11 ×10⁻⁶ cm/s.

Take `COc1cc2nc(N3CCc4c(cccc4NS(C)(=O)=O)C3)nc(N)c2c(-c2ccccn2)c1OC` [4-amino-6,7-dimethoxy-2-(5-methanesulfonamido-1,2,3,4-tetrahydroisoquinol-2-yl)-5-(2-pyridyl)quinazoline]: the “absorption from the colon” value in data set [2] is “low, and highly variable”.
